Structures are written as SMILES. “Also recorded” adds a separate entry of the source.

Experimental findings from PMC10574562 (Molecules, 2023) are described below.

The nature of data set [1]: Determination of distribution coefficient LogD7.4 (1-octanol/PBS). Particulars: 1-octanol/PBS pH 7.4; ± SD; read-out: Log D7.4. The data set is classed as physicochemical. The protocol: (§1) We experimentally confirmed their predicted poor to medium–good permeability profile by measuring their LogD at physiological pH through a known procedure, and by determining their percentage bound to model lipid bilayers after incubation, as a measure of their affinity for cell-membrane-like liposomes. Results are shown in Table 2 (LogD7.4, column 2; interaction with liposomes at 20 °C and 37 °C, columns 3 and 4, respectively).
LogD7.4 values were determined by slightly modifying a reported procedure. Namely, an 80 mM solution of each selected EDA analogue in DMSO was diluted in 1-octanol at a final 800 μM concentration. UV–vis spectra were acquired to determine λmax and the necessary dilutions to obtain absorption values for each tested analogue; between 0.5 and 1. 5 mL of each solution were placed in 15 mL conical centrifuge tubes, PBS was added (5 mL, pH 7.4) and the biphasic system was vigorously mixed using a vortex mixer (VELP Scientifica, Usmate Velate, MB, Italy) for 4 min. After centrifugation (2000× g, 30 min), the 1-octanol phase absorption was measured at each compound’ λmax; the procedure was repeated to acquire data in triplicate. The distribution coefficient logD7.4 was calculated according to the following equation: LogD7.4 = Log ([C]oct/[C]PBS) = Log (Af/Ai − Af)(2) where Ai is the pre-extraction measured absorbance in 1-octanol and Af is the post-extraction final measured absorbance in 1-octanol.

The nature of data set [2]: Interaction with liposome cell membrane models. It counts as in vitro ADME. The method, then:
as §1
EDA analogues dissolved in MeOH (0.1 mL) were added to 0.9 mL of large unilamellar phosphatidylcholine vesicles (PC LUVs) in PBS (3 mM lipid final concentration; 0.6 mM EDA analogue final concentration) and incubated at 37 °C for 20 min. Then, any remaining free EDA analogue was separated from liposomes by size-exclusion chromatography.
A disposable syringe (2.5 mL) packed with hydrated Sephadex G-50 resin was placed in a 15 mL plastic test tube and preconditioned with PBS; then, the liposomal suspension (1 mL) was gently added on the top of the syringe and centrifuged at 500× g for 10 min. The eluate was collected at the bottom of the test tube and lysed by addition of Triton X-100 (final concentration 1% v/v). The concentration of each EDA analogue in each solution was estimated with the Folin–Ciocalteu assay. Namely, 50% Folin–Ciocalteu reagent (150 μL) was added to test samples (50 μL) into a 96-well microplate and shaken. After 10 min, a 7.5% sodium carbonate solution (0.1 mL) was added; the mixtures were incubated in the dark for 1 h at rt; and, finally, the absorbance was measured at 765 nm on a BioTek SynergyHT MicroPlate Reader spectrophotometer (Marshall Scientific, Hampton, NH, USA) using an appropriate blank. Reference calibration curves were plotted for every sample. The ratio (%) of the drug incorporated into the lipid bilayer was then calculated according to the following equation:% ratio of incorporated antioxidant = 100 × [incorporated amount]/[added amount](3)

A further data set relates to Cu-induced ROS. As to the kind of experiment: Cu-induced ROS inhibition. Particulars: ± SD. From the text: Table 2 In vitro profiling for EDA 1 and selected analogues 2b, 2c and 4a. | column: Cu-Induced ROS Inhibition ^c,a
A short description of data set [3]: DPPH radical scavenging assay. As to conditions: 25 µM analogue, 100 µM DPPH, MeOH, 30 min incubation. The protocol: A DPPH assay was carried out after 30 min of incubation with EDA 1 and its analogues in reported conditions to determine their radical scavenging ability.
The DPPH free radical scavenging activity of EDA analogues was determined using a previously described method. Appropriate aliquots of putative antioxidants 1–13c were mixed with DPPH in methanol (25 µM EDA analogue, 100 µM DPPH, final concentration); the reaction mixtures were shaken and then incubated for 30 min in the dark. Their absorbances, and the absorbance of a DPPH solution as a negative control, were then measured at 517 nm with a BioTek SynergyHT MicroPlate Reader spectrophotometer (Marshall Scientific, Hampton, NH, USA) against methanol as blank. The scavenging percentage of each EDA analogue was calculated according to the following equation:DPPH radical scavenging (%) = [(Acontrol—Asample)/Acontrol] × 100,(1) where Acontrol is the control absorbance obtained by adding a methanol aliquot equal to the EDA analogue solution volume added to the methanolic DPPH solution and Asample is the absorbance of each test solution after 30 min incubation. All experiments were repeated at least three times, and measurements were run in triplicate.
(In general: The DPPH test is a chemical assay of radical scavenging.)

The subject of data set [4] is oligodendrocyte progenitor cells (OPCs). The experiment in a line: MTT reduction assay on purified OPC cultures. It counts as cell-based, mouse. Particulars: 10 μM; for Effect on metabolic activity of OPCs (MTT reduction): 48 h incubation, purified mouse OPCs, vs DMSO controls. The protocol:
Purified mouse OPCs were grown for 24 h and treated with EDA 1 and analogues 2b–4c (10 μM) for 44 h; then, MTT was added and OPCs were incubated for 4 h.
Primary cultures of purified OPC (>99%) were obtained from the cerebral hemispheres of newborn CD1 Swiss mice according to the authorization for the care and use of laboratory animals mentioned in Section 4.2.1. OPCs were grown in a defined serum-free Dulbecco’s Modified Eagle Medium (DMEM) without thyroid hormones at 1 × 10^5 cells/cm^2 into poly-L-lysine-coated 96-well microtiter plates for 3 days.
One day after plating, purified OPCs were incubated with or without EDA analogues (10 µM) in DMSO (0.001% vehicle) for 48 h. MTT reduction to formazan was carried out as previously described. MTT (Sigma-Aldrich, Milan, Italy) was added to the culture medium at a final 0.25 mg/mL concentration during the last 4 h of incubation.

A short description of data set [5]: Chemical stability in biological media (DPPH assay and TLC). It counts as in vitro ADME. As to conditions: PBS and standard medium, 20 min. The protocol: We investigated the stability of 4′-ester EDA 2c and N^1-carbamate 4′-ester EDA 4a (respectively, black and grey bars, Figure 5) in biological media, checking both ester and N^1-carbamate stability in 4a both by thin-layer chromatography (TLC) and by checking the DPPH radical scavenging activity of 2c and 4a after incubation.
Namely, 2c and 4a were incubated in PBS and in standard medium at 20 °C and 37 °C for 20 min; then, DPPH was added and the radical scavenging activity was measured in all media.
4′-Ester 2c and N^1-carbamate ester 4a were incubated in PBS and in a standard cell culture medium supplemented with FBS 10% at 20 °C and 37 °C. After 20 min, appropriate aliquots of the solutions were mixed with DPPH in methanol (25 µM, DPPH 100 µM, final concentration) and the DPPH radical scavenging assay was carried out as described above. Assay media after incubation were also monitored by TLC (eluent mixture: 1:1 cyclohexane/AcOEt).

Data set [6] has as its system oligodendrocyte progenitor cells (OPCs). As to the kind of experiment: MTT reduction assay on purified OPC cultures. Particulars: lower dosages than 10 μM (not shown). The data set is classed as cell-based, mouse. For orientation: Tetrazolium dyes change colour on reduction, which living cells bring about.

As to `CC1=NN(c2ccccc2)C(=O)C1` [Compound 1, edaravone, reference compound], the logD in data set [1] came to 1.1 ± 0.1. For the same compound, the “Affinity for a Model Lipid Bilayer, % ratio of liposome-bound EDA analogue” value turned out to be 37 ± 3% in data set [2] (20 °C) and 53 ± 2% in data set [2] (37 °C). Besides, the IC50 in the data set on Cu-induced ROS was 14 ± 2 µM.
For the compound `CC1=NN(c2ccc(C(=O)O)cc2)C(=O)C1` [Compound 2b], the “DPPH radical scavenging/antioxidant activity” value in data set [3] was “significantly more potent than EDA 1; also recorded: significantly higher antioxidant activity than parent EDA 1”. Besides, the logD in data set [1] is -0.74 ± 0.19. In addition, the figures for the “Affinity for a Model Lipid Bilayer, % ratio of liposome-bound EDA analogue” value in data set [2] (20 °C) and in data set [2] (37 °C) were 38 ± 4% and 45 ± 2%, respectively. Also, the IC50 with Cu-induced ROS was 38 ± 5 µM.
Take `COC(=O)c1ccc(N2N=C(C)CC2=O)cc1` [Compound 2c, Methyl 4-(3-methyl-5-oxo-4,5-dihydro-1H-pyrazol-1-yl)benzoate]: the “Effect on metabolic activity of OPCs (MTT reduction)” value (“Effect … (MTT reduction)” below) in data set [4] is “stimulated OPC metabolism comparably to EDA 1; also recorded: comparable stimulation of OPC metabolism”. Further, the “DPPH radical scavenging/antioxidant activity” value in data set [3] is “comparable antioxidant activity to EDA 1”. In addition, the logD in data set [1] turned out to be 1 ± 0.1. The “Affinity for a Model Lipid Bilayer, % ratio of liposome-bound EDA analogue” value in data set [2] (20 °C) is 52 ± 2%; in data set [2] (37 °C), 71 ± 2%. This compound also showed an IC50 with Cu-induced ROS of 53 ± 7 µM. In addition, the “DPPH radical scavenging activity after incubation in biological media” value in data set [5] (20 °C and 37 °C) is given as “expected radical scavenging activity”. Moreover, the “Stability in biological media by TLC” value in data set [5] (20 °C and 37 °C) is recorded as “stability in biological media was confirmed”.
In the case of `CC1=NN(c2ccc(C(=O)NCCN=[N+]=[N-])cc2)C(=O)C1` [Compound 2d], in data set [4], the “Effect … (MTT reduction)” value is listed as “did not stimulate OPC development compared to DMSO controls; also recorded: lack of activity on OPCs”. Further, the “DPPH radical scavenging/antioxidant activity” value in data set [3] is recorded as “comparable antioxidant activity to EDA 1”.
Take `CC1=NN(c2ccc(C(=O)NCCCCCCN=[N+]=[N-])cc2)C(=O)C1` [Compound 2e]: the “Effect … (MTT reduction)” value in data set [4] was “did not stimulate OPC development compared to DMSO controls; also recorded: lack of activity on OPCs”.
Regarding `CC1=NN(c2ccc(C(=O)NCc3ccc(C4(C(F)(F)F)N=N4)cc3)cc2)C(=O)C1` [Compound 2f], in data set [4], the “Cytotoxicity on OPCs in MTT assay” value was “cytotoxic at this concentration” and the “Effect … (MTT reduction)” value is reported as “lack of activity on OPCs”. Besides, the “OPC activity in MTT assay at lower dosages” value in data set [6] was “inactive at lower dosages”.
Regarding `CC1=NN(c2ccc(CO)cc2)C(=O)C1` [Compound 2g], in data set [3], the “DPPH radical scavenging/antioxidant activity” value is “comparable antioxidant activity to EDA 1”.
For the compound `CC1=NN(c2ccc(CN=[N+]=[N-])cc2)C(=O)C1` [Compound 2h], the “Effect … (MTT reduction)” value in data set [4] is “did not stimulate OPC development compared to DMSO controls; also recorded: lack of activity on OPCs”. Besides, the “DPPH radical scavenging/antioxidant activity” value in data set [3] was “comparable antioxidant activity to EDA 1”.
For `CCC1=NN(c2ccccc2)C(=O)C1` [Compound 3a], in data set [4], the “Cytotoxicity on OPCs in MTT assay” value is listed as “cytotoxic at this concentration”. Also, the “DPPH radical scavenging/antioxidant activity” value in data set [3] is “comparable antioxidant activity to EDA 1”. The “OPC activity in MTT assay at lower dosages” value in data set [6] is “inactive at lower dosages”.
As for `O=C1CC(COCc2ccccc2)=NN1c1ccccc1` [Compound 3b], the “DPPH radical scavenging/antioxidant activity” value in data set [3] is “comparable antioxidant activity to EDA 1”.
In the case of `COC(=O)c1ccc(-n2c(=O)cc(C)n2C(=O)OC(C)(C)C)cc1` [Compound 4a, Tert-butyl 2-(4-(methoxycarbonyl)phenyl)-5-methyl-3-oxo-2,3-dihydro-1H-pyrazole-1-carboxylate], in data set [4], the “Effect … (MTT reduction)” value is “stimulated OPC metabolism comparably to EDA 1; also recorded: comparable stimulation of OPC metabolism”. Moreover, in data set [1], the logD stood at 2.3 ± 0.4. Also, the “Affinity for a Model Lipid Bilayer, % ratio of liposome-bound EDA analogue” value in data set [2] (20 °C) is reported as 88 ± 6%. Also, the “Affinity for a Model Lipid Bilayer, % ratio of liposome-bound EDA analogue” value in data set [2] (37 °C) is 77 ± 4%. This compound returned an IC50 with Cu-induced ROS of 65 ± 6 µM. Moreover, in data set [5] (20 °C), the “DPPH radical scavenging activity after incubation in biological media” value is listed as “did not scavenge DPPH” and the “Stability in biological media by TLC” value is given as “stability was confirmed by TLC”. Besides, in data set [5] (37 °C), the “DPPH radical scavenging activity after incubation in biological media” value is on record as “significant antioxidant activity was detected”; the “Stability in biological media by TLC (N^1-carbamate)” value is “N^1-carbamate hydrolysis and 2c formation; also recorded: fully removed”.

The term IC50 denotes the concentration at which inhibition is half-maximal. Read a low IC50 as inhibition by little substance.
